Target: human IDO1 (Homo sapiens, UniProt P14902)
Test: Assessment of human IDO-1 inhibitory activity in Hela cells (Interferon-gamma stimulated HeLa cells, Ehrlich reagent, absorbance 490 nm)
Type: cell-based
Parameters: endogenous in cells; host or cells: HeLa cells stimulated with interferon-gamma
Conditions: Hela Human IDO-1 cellular assay
Summary of the method: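 IDO activity induced by 18 h IFN-γ (human 10 ng/ml or murine 5 ng/ml, final) after 1 h compound pre-treatment of HeLa cells at 37 °C. Supernatant kynurenine detected via Ehrlich reagent absorbance at 490 nm following 3% TCA at 50 °C; IC50 set against no-IFN-γ and untreated-stimulated controls.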

human IDO1, sequence (P14902 whole entry): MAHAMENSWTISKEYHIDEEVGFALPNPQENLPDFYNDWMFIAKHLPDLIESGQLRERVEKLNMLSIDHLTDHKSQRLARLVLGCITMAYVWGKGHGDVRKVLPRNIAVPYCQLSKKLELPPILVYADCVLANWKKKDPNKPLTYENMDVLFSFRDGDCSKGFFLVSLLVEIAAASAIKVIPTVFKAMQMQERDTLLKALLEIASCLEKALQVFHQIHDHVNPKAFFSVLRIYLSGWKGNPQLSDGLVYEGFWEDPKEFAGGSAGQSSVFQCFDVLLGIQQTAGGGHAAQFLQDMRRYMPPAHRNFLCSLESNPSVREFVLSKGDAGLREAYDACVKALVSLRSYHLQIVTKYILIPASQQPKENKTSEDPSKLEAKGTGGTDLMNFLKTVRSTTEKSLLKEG

Row | IC50 | SMILES
1 | < 5 nM | CCC(CC(=O)O)c1cc(F)c(N(CC)C2CCOCC2)c(Nc2cnc(OC)nc2)c1 (single isomer, unassigned) [Example 140, 3-(4-(ethyl(tetrahydro-2H-pyran-4-yl)amino)-3-fluoro-5-((2-methoxypyrimidin-5-yl)amino)phenyl) pentanoic acid]
2 | > 50 nM | COCC(CC(=O)O)c1ccc(N2CCOC(C)C2)c(Nc2ccc(C#N)cc2)c1 (single isomer, unassigned) [Example 1312, 3-(3-((4-cyanophenyl)amino)-4-(2-methylmorpholino)phenyl)-4-methoxybutanoic acid]

Row | SMILES | IC50
3 | CCC(CC(=O)O)c1ccc(N2CCN(C(=O)OC(C)(C)C)CC2)c(Nc2ccc(C#N)cc2)c1 (single isomer, unassigned) [Example 674 Enantiomer 1, 3-(4-(4-(tert-Butoxycarbonyl)piperazin-1-yl)-3-((4-cyanophenyl)amino)phenyl)pentanoic acid] | < 50 nM

Source: US9790169B2, “IDO inhibitors” (BRISTOL-MYERS SQUIBB COMPANY, priority 2015, dated 2017)
